# In patent publication EP3298025B1, “NEW AMINO ACID SEQUENCES WITH MI[…] DERIVED FROM NAJA ATRA CARDIOTOXIN 1 (CTX-1)” (Università degli Studi di Parma, priority 2015, dated 2016):
# Where “and” joins values, the source holds several entries; their conditions need not be identical. Equal values may be shown once. Residues, ends and D or L forms follow the SMILES beside them.
# Experiments:
# MRSA ATCC 43400 = assay: micro-dilution in liquid medium and transplant on solid medium, Gram-positive bacteria; format: cell-based, Staphylococcus aureus; settings: 2 hours at 37°C, transplant on agar
# Procedure: (§1) For each bacterial strain 3-5 morphologically similar colonies from fresh cultures were taken and inoculated in Brain Heart Infusion broth, then incubated at 37°C in agitation at 225 r.p.m. for about 3-4 hours. Then the bacterial suspension was centrifuged at 1000 G for 20 minutes and the pellet resuspended in phosphate buffer pH 7, 10 mM. The turbidity of the bacterial suspension was measured using a spectrophotometer with absorbance of 600 nm; the range 0,08-0,13 equates to about 10^8 cfu/ml. The bacterial suspension was diluted 1:100 in phosphate buffer 10mM to obtain a bacterial concentration of about 10^6 cfu/ml. Within 30 minutes 50 µl of the suspension 10^6 cfu/ml were inoculated in each well of the microtiter plate, to obtain a bacterial concentration of about 5x10^5 cfu/ml.
# The peptides ability to inhibit the bacterial growth in liquid cultures was tested. 50 µl of each peptides solutions of about 0.2-50 µM were added in microtiter plates with 96 wells with liquid culture medium and one of these bacterial strains: Staphylococcus aureus ATCC 25923, MRSA ATCC 43300, Streptococcus agalactiae ATCC 13813 and Enterococcus hirae ATCC 10541. […]
# The bacterial suspension and differing peptides concentrations were put in contact for about 2 hours at 37°C. […] After an incubation time of 24 hours at 37°C, the bacterial colonies (cfu) were counted.
# [1] = test system: Gram-negative tested bacteria; assay: micro-dilution and transplant on agar, summary over Gram-negative panel; format: cell-based; settings: almost all Gram-negative tested bacteria
# Procedure: as §1, with “range 0.08-0.13” for “range 0,08-0,13”, “suspension (10^6 cfu/ml)” for “suspension 10^6 cfu/ml”
# The peptides ability to inhibit the bacterial growth in liquid cultures was tested. 50 µl of each peptides solutions of about 0,2-50 µM were added in microtiter plates with 96 wells with U-shaped bottom, containing the liquid culture medium and one of these bacterial strains: E coli ATCC 25922, Pseudomonas. […]
# The bacterial suspension and peptides were put in contact for 2 hours at 37°C, with differing concentrations of the peptide. […] After an incubation time of 24 hours at 37°C, the bacterial colonies (cfu) were counted.
# MRSA ATCC 43300 = assay: antimicrobial activity in presence of NaCl; format: cell-based, Staphylococcus aureus
# Procedure: (§2) Peptides were tested in the ability to inhibit bacterial growth in liquid medium. 50 µl of peptides at a concentration […] E. coli ATCC 25922, Pseudomonas aeruginosa ATCC 27853 and Staphylococcus aureus methicillin resistant ATCC 43300. After 2 hours incubation at 37°C, bacteria were plated on solid culture medium. Bacterial cultures were cultivated without peptides as growth control.
# (§3) The bacterial suspension and peptides at differing concentrations were put in contact for about 2 hours at 37°C. After this incubation, 20 µl from every well of the plate were transplanted on solid culture medium, McConkey agar for Gram-negative and Columbia agar with 5% of bovine erythrocytes for Gram-positive bacteria. The inoculum was evenly distributed on the agar medium using a single use sterile handle. After an incubation time of 24 hours at 37°C, the bacterial colonies (cfu) were counted.
# [2] = test system: Acinetobacter baumanii from cloaca (herpetological); assay: micro-dilution in liquid medium and transplant on agar, Gram-negative bacteria; format: cell-based; settings: 2 hours at 37°C, transplant on agar
# Procedure: as §1, with “range 0.08-0.13” for “range 0,08-0,13”, “suspension (10^6 cfu/ml)” for “suspension 10^6 cfu/ml”
# (§4) The peptides ability to inhibit the bacterial growth in liquid cultures was tested. 50 µl of each peptides solutions of about 0,2-50 µM were added in microtiter plates with 96 wells with U-shaped bottom, containing the liquid culture medium and one of these bacterial strains: E coli ATCC 25922, Pseudomonas. Aeruginosa ATCC 27853, Proteus mirabilis ATCC 14153, Burkholderia cepacia ATCC 17759, Moraxella catharralis ATCC 25238 or other wild strains of Klebsiella pneumoniae subsp. pneumoniae, Enterobacter cloacae, Acinetobacter baumanii.
# (§5) After 2 hours incubation at 37°C, the bacteria were transplanted on solid medium. As a growth reference, bacterial cultures were grown in absence of peptides.
# (§6) The bacterial suspension and peptides were put in contact for 2 hours at 37°C, with differing concentrations of the peptide. Then 20 µl from each well of the plate were taken and transferred on solid culture medium, McConkey agar. The inoculum was uniformly distributed on the agar medium with aid of a sterile disposable handle. After an incubation time of 24 hours at 37°C, the bacterial colonies (cfu) were counted.
# [3] = test system: Acinetobacter baumanii from cloaca (ornithological); assay: as above; format: cell-based; settings: 2 hours at 37°C, transplant on agar
# Procedure: as §1, with “range 0.08-0.13” for “range 0,08-0,13”, “suspension (10^6 cfu/ml)” for “suspension 10^6 cfu/ml”
# as §4, §5, §6
# [4] = test system: Pseudomonas aeruginosa ATCC 27853; assay: as above; format: cell-based; settings: 2 hours at 37°C, transplant on agar
# Procedure: as §1, with “range 0.08-0.13” for “range 0,08-0,13”, “suspension (10^6 cfu/ml)” for “suspension 10^6 cfu/ml”
# as §4, §5, §6
# [5] = test system: Moraxella catharralis ATCC 25238; assay: as above; format: cell-based; settings: 2 hours at 37°C, transplant on agar
# Procedure: as §1, with “range 0.08-0.13” for “range 0,08-0,13”, “suspension (10^6 cfu/ml)” for “suspension 10^6 cfu/ml”
# as §4, §5, §6
# [6] = test system: Acinetobacter baumanii (human strain); assay: as above; format: cell-based; settings: 2 hours at 37°C, transplant on agar
# Procedure: as §1, with “range 0.08-0.13” for “range 0,08-0,13”, “suspension (10^6 cfu/ml)” for “suspension 10^6 cfu/ml”
# as §4, §5, §6
# E. coli ATCC 25922 = assay: antimicrobial activity in presence of NaCl; format: cell-based
# Procedure: as §2, with “concentration between 0.2 µM and 50 µM were” for “concentration”
# as §3
# [7] = test system: epithelial MDBK cells (Madin Darby Bovine Kidney); assay: cytotoxicity against eukaryotic cells, Trypan Blue; format: cell-based; settings: overnight incubation
# Procedure: Peptides cytotoxicity against epithelial MDBK cells (Madin Darby Bovine Kidney) was determined using cell cultures of about 5x10^5 cells/ml with and without peptides, with overnight incubation at 37°C with CO2. The negative control was in medium without peptide; positive control was in medium with 0.2% of Triton x100, to completely lyse cells. Cells vitality was assessed adding every well with 20 µl of Trypan Blue, incubating other 5 minutes at 37°C. MCC10 was the minimal peptide concentration with 10% of cytotoxicity.
# [8] = 125 mM NaCl, peptide 12.5 µg/ml
# [9] = 250 mM NaCl, peptide 12.5 µg/ml
smiles,measurement,setting,value
"CC[C@H](C)[C@H](NC(=O)[C@H](CCCCN)NC(=O)[C@H](Cc1ccc(O)cc1)NC(=O)[C@H](CS)NC(=O)[C@H](CC(C)C)NC(=O)[C@H](CC(N)=O)NC(=O)[C@H](CCCCN)NC(=O)CNC(=O)[C@H](C)NC(=O)[C@@H]1CCCN1C(=O)[C@H](CS)NC(=O)[C@@H](NC(=O)[C@H](CCCCN)NC(=O)[C@H](CO)NC(=O)[C@H](C)NC(=O)[C@@H](NC(=O)[C@@H]1CCCN1C(=O)[C@@H](NC(=O)[C@H](CC(C)C)NC(=O)[C@@H](N)CCCCN)[C@@H](C)CC)[C@@H](C)CC)[C@@H](C)O)C(=O)O [NCP-0, K LIPIA SKT CPA GKN LCY KI] (H-KLIPIASKTCPAGKNLCYKI-OH; N-terminus and C-terminus assumed)",LD90,MRSA ATCC 43400,> 100 µg/ml and > 46.3 µM
same,LD99,MRSA ATCC 43400,> 200 µg/ml and > 92.6 µM
same,antimicrobial activity,[1],scarcely active
same,Antimicrobial activity (% to control),"MRSA ATCC 43300; 10 mM NaCl, peptide 12.5 µg/ml",0%
same,Antimicrobial activity (% to control),"MRSA ATCC 43300; 10 mM NaCl, peptide 100 µg/ml",2%
same,Antimicrobial activity (% to control),MRSA ATCC 43300; [8],0%
same,Antimicrobial activity (% to control),"MRSA ATCC 43300; 125 mM NaCl, peptide 100 µg/ml",0%
same,Antimicrobial activity (% to control),MRSA ATCC 43300; [9],0%
same,Antimicrobial activity (% to control),"MRSA ATCC 43300; 250 mM NaCl, peptide 100 µg/ml",0%
same,LD90,[2],142.80 µg/ml and 66.1 µM
same,LD99,[2],202.98 µg/ml and 94 µM
same,LD90,[3],126.205 µg/ml and 58.4 µM
same,LD99,[3],"127,26 µg/ml and 59 µM"
same,LD90,[4],> 100 µg/ml and > 46.3 µM
same,LD99,[4],> 200 µg/ml and > 92.6 µM
same,LD90,[5],0.8 µg/ml and 0.4 µM
same,LD99,[5],1.6 µg/ml and 0.7 µM
same,LD90,[6],123.77 µg/ml and 57.3 µM
same,LD99,[6],131.55 µg/ml and 61 µM
same,Antimicrobial activity (% to control),"E. coli ATCC 25922; 10 mM NaCl, peptide 12.5 µg/ml",0%
same,Antimicrobial activity (% to control),"E. coli ATCC 25922; 10 mM NaCl, peptide 100 µg/ml",3%
same,Antimicrobial activity (% to control),E. coli ATCC 25922; [8],0%
same,Antimicrobial activity (% to control),"E. coli ATCC 25922; 125 mM NaCl, peptide 100 µg/ml",0%
same,Antimicrobial activity (% to control),E. coli ATCC 25922; [9],0%
same,Antimicrobial activity (% to control),"E. coli ATCC 25922; 250 mM NaCl, peptide 100 µg/ml",0%
same,Cytotoxicity: cell number percentage reduction in comparison with control,[7]; peptide 12.5 µg/ml,4%
same,Cytotoxicity: cell number percentage reduction in comparison with control,[7]; peptide 100 µg/ml,6%
